Here are results for 5 compounds from article PMC9076067 (RSC Advances, 2019).

The test system of one series is Staphylococcus aureus. The note with it: cited from earlier work.
Another series relates to MRSA. The note with it: cited from earlier work.
Series [1] is described as follows: parallel artificial membrane permeability assay. It is filed as in vitro ADME. As to conditions: 200 μM in PBS pH 7.4, five hours, room temperature.
The subject of series [2] is Staphylococcus aureus ATCC6538. Put plainly: MIC/MBC by micro-dilution broth method. It is filed as cell-based. The note with it: S. aureus ATCC 6538.
The test system of series [3] is Micrococcus luteus ATCC10240. In words: MIC/MBC by micro-dilution broth method. It is filed as cell-based. A general note: In broth dilution the organism is exposed to a series of concentrations in liquid medium.
Series [4] deals with Staphylococcus epidermidis ATCC12228. Put plainly: MIC/MBC by micro-dilution broth method. It is filed as cell-based. The note with it: S. epidermidis ATCC 12228.
Series [5] has as its system Staphylococcus aureus ATCC43300. In words: MIC/MBC by micro-dilution broth method. It is filed as cell-based. As to conditions: S. aureus ATCC 43300.
Series [6] deals with Streptococcus mutans ATCC25175. Put plainly: MIC/MBC by micro-dilution broth method. It is filed as cell-based. As to conditions: S. mutans ATCC 25175.

In brackets after ≈: the same amount, converted by molar mass.

Turning to `O=C1NC(=S)SC1=Cc1ccc(F)c(F)c1F` [5-(2,3,4-trifluorobenzylidene)-rhodanine], the concentration inhibiting growth with Staphylococcus aureus was 0.5 mg/L; in the series on MRSA it was 32 mg/L.

For `O=C(O)CN1C(=O)/C(=C/c2ccc(-c3ccc(N(c4ccccc4)c4ccccc4)cc3)c3ccccc23)SC1=S` [5b, (Z)-2-(5-((4-(4-(Diphenylamino)phenyl)naphthalen-1-yl)methylene)-4-oxo-2-thioxothiazolidin-3-yl)acetic acid], the “ability to penetrate the membrane (PAMPA)” value (“ability” for short) in series [1] is “none of the tested compounds had the ability to penetrate the cell membrane”.

Consider `O=C(O)CN1C(=O)/C(=C/c2c3ccccc3c(-c3ccc(N(c4ccccc4)c4ccccc4)cc3)c3ccccc23)SC1=S` [5c, (Z)-2-(5-((10-(4-(Diphenylamino)phenyl)anthracen-9-yl)methylene)-4-oxo-2-thioxothiazolidin-3-yl)acetic acid], for which the “ability” value in series [1] is “none of the tested compounds had the ability to penetrate the cell membrane”.

For orientation: MIC means the lowest concentration that inhibits growth of the organism. Turning to `O=C(O)CN1C(=O)/C(=C/c2ccc(-c3ccc(N(c4ccccc4)c4ccccc4)cc3)cc2)NC1=S` [7a, (Z)-2-(5-((4′-(Diphenylamino)-(1,1′-biphenyl)-4-yl)methylene)-4-oxo-2-thioxoimidazolidin-3-yl)acetic acid], the MIC is 1.95 µg/mL (≈ 3.86 µM) in series [2]; 1.95 µg/mL (≈ 3.86 µM) in series [3] (M. luteus ATCC 10240); 1.95 µg/mL (≈ 3.86 µM) in series [4]; 1.95 µg/mL (≈ 3.86 µM) in series [5]; 62.5 µg/mL (≈ 124 µM) in series [6]. In addition, in series [3] (ratio, ATCC 10240), the MIC/MBC is reported as 16.

In the case of `O=C(O)CN1C(=O)/C(=C/c2ccc(-c3ccc(N(c4ccccc4)c4ccccc4)cc3)cc2)SC1=S` [5a, (Z)-2-(5-((4′-(Diphenylamino)-(1,1′-biphenyl)-4-yl)methylene)-4-oxo-2-thioxothiazolidin-3-yl)acetic acid], the “ability” value in series [1] was “none of the tested compounds had the ability to penetrate the cell membrane”.
